Test results as given in paper PMC12389534, “Unlocking Therapeutic Potential of Novel Thieno-Oxazepine Hybrids as Multi-Target Inhibitors of AChE/BChE and Evaluation Against Alzheimer’s Disease: In Vivo, In Vitro, Histopathological, and Docking Studies” (Pharmaceuticals, 2025).

Legend:
[1] = test system: AlCl3-induced AD rat model; test: Morris water maze (MWM) test in AlCl3-induced AD rats; type: in vivo; details: mean ± SE, n = 6
Method: (§1) All procedures were conducted conforming to the applicable National Institutes of Health standards and regulations for the Care and Use of Laboratory Animals. In this experiment, adult male Dawley rats in excellent condition weighing between 300 and 320 g were used. The animals were acquired from the Nile Company for Pharmaceuticals and Chemical Industries (Cairo, Egypt). They were placed in a controlled laboratory setting with unrestricted access to water, a temperature range of 24 to 26 °C, and 12 h a light–dark cycle. Three rats per cage were housed in polycarbonate cages that were individually packed with paper and encased with stainless steel wire.
Spatial learning and memory were inspected using the MWM test. Tap water was poured into a 150 cm diameter by 60 cm high circular water tank until it reached a depth of 30 cm (25 ± 2 °C). To make the water […], non-toxic white dye was applied. The east, west, north, and south quadrants of the pool were essentially separated into four equal sections. At a specific spot in the middle of one quadrant, an escape platform with a diameter of 10 cm was submerged 2 cm below the water’s surface. The platform stood in the exact same quadrant throughout the testing. The rats’ swimming route was recorded by a video camera situated above the pool. From a designated spot in each quadrant, each rat was submerged in the water with its back turned to the pool wall, and it was then left to swim to the platform. The rats received training sessions every day for three days in a row, with four trials conducted in each session. Before the next trial began, the animals were kept a maximum of 60 s to explore the hidden platform. After that, they were permitted to relax on it for 20 s. The rat was positioned gently on the platform and allowed 20 s to rest if it took longer than 60 s to locate it. The time taken to find the platform, or the escape latency, was documented. In order to do a probing test on the fourth day, the platform was detached away, and the rats were given 60 s to swim liberally. The time spent in the assigned quadrant was counted.

[2] = test system: AlCl3-induced AD rat model; test: Y-maze SAP test in AlCl3-induced AD rats; type: in vivo; details: mean ± SE, n = 6
Method: as §1
One kind of short-term memory that SAP can represent is spatial working memory. Three arms, designated A, B, or C, were employed in a black hardwood Y-maze with a symmetrical triangular core space. Rats were briefly positioned at the edge of one arm and given 8 min to freely navigate around the maze. When the rat’s rear paws were fully inside the arm, the entries were counted. The following formula was used to determine SAP based on the total number of arm entries and alternations: SAP (%) = [number of alternations/(total arm entries − 2)] × 100 [94].

COc1cc2c(cc1OC)C(=O)C(CC1CCN(Cc3ccccc3)CC1)C2 (stereo not drawn) [Donepezil, reference compound]
Learning (s) ([1]; escape latency): 14.78 ± 0.83 ^ab s
Memory (s) ([1]; time spent in target quadrant): 42.67 ± 0.61 ^ab s
SAP% [2]: 85 ± 0.58 ^ab %
